Test results as given in ChEMBL document CHEMBL3817725, “Design, synthesis, and biological evaluation of a novel series of peripheral-selective noradrenaline reuptake inhibitors - Part 3” (Bioorg Med Chem, 2016).

Experiments:
[1] = Mean residence time in Crl:CD(SD)(IGS) rat at 1 mg/kg, po administered via cassette dosing by LC/MS/MS analysis; type: ADME, organism-based; details: in vivo
[2] = Oral bioavailability in Crl:CD(SD)(IGS) rat at 1 mg/kg administered via cassette dosing by LC/MS/MS analysis; type: ADME, organism-based; details: in vivo
[3] = system: MDR1; test: Efflux ratio of apparent permeability from basolateral to apical side over apical to basolateral side in pig LLC-PK1 cells expressing human MDR1 at 10 umol/l after 2 hrs by LC/MS/MS analysis; type: ADME, cell-based, Sus scrofa
[4] = Cmax in Crl:CD(SD)(IGS) rat at 1 mg/kg, po administered via cassette dosing by LC/MS/MS analysis; type: ADME, organism-based; parameters: dose 1 mg/kg, route oral; details: in vivo
[5] = target: Sodium-dependent noradrenaline transporter (Homo sapiens, UniProt P23975); test: Inhibition of human NET expressed in CHO cells assessed as [3H]-Norepinephrine reuptake incubated for 45 mins measured after 30 mins by topcount method; type: cell-based
Sodium-dependent noradrenaline transporter, sequence (P23975 whole entry): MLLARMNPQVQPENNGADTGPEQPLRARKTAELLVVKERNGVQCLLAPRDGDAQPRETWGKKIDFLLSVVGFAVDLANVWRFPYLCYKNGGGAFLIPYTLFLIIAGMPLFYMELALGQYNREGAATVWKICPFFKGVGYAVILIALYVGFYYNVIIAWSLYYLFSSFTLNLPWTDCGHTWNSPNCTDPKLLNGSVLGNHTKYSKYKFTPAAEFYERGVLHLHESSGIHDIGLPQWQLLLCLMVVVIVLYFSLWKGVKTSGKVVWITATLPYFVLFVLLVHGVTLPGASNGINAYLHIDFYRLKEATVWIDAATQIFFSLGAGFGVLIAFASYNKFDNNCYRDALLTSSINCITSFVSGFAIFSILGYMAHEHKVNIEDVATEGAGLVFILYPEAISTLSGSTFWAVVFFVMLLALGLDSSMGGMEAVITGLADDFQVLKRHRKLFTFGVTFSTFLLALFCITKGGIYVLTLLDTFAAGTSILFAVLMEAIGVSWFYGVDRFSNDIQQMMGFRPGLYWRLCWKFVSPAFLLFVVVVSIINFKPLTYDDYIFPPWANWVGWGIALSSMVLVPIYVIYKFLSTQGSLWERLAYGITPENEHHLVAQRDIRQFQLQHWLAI

[6] = Dissociation constant, pKa of the compound; type: physicochemical
[7] = target: Sodium-dependent dopamine transporter (Homo sapiens, UniProt Q01959); test: Inhibition of human DAT expressed in CHO cells assessed as [3H]-dopamine reuptake incubated for 60 mins measured after 30 mins by topcount method; type: cell-based
Sodium-dependent dopamine transporter, sequence (Q01959 whole entry): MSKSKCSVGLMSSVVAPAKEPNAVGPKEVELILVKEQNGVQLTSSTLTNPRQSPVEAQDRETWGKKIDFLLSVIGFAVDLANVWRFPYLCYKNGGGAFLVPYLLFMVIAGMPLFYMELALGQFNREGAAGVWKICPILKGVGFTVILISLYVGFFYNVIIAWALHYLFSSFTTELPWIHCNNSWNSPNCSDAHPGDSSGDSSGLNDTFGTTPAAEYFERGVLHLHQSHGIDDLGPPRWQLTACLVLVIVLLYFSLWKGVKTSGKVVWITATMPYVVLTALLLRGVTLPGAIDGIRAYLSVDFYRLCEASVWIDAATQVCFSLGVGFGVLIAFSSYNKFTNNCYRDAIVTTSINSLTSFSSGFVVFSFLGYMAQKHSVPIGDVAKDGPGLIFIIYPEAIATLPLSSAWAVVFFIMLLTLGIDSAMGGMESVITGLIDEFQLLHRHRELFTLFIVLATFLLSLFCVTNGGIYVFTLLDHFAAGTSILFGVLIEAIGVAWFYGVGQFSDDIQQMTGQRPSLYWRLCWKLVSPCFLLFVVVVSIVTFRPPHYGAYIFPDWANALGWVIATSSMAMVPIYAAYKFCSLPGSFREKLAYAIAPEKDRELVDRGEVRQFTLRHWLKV

[8] = system: Rattus norvegicus; test: Ex vivo occupancy at NET in Sprague-Dawley rat brain cortex assessed as inhibition of [3H]-nisoxetine binding at 3 mg/kg, iv measured after 1 hr by scintillation counting method; type: functional
[9] = AUC in Crl:CD(SD)(IGS) rat at 1 mg/kg, po administered via cassette dosing by LC/MS/MS analysis; type: ADME, organism-based; details: in vivo
[10] = target: Sodium-dependent serotonin transporter (Homo sapiens, UniProt P31645); test: Inhibition of human SERT expressed in CHO cells assessed as [3H]-5-hydroxytryptamine reuptake incubated for 20 mins measured after 30 mins by topcount method; type: cell-based
Sodium-dependent serotonin transporter, sequence (P31645 whole entry): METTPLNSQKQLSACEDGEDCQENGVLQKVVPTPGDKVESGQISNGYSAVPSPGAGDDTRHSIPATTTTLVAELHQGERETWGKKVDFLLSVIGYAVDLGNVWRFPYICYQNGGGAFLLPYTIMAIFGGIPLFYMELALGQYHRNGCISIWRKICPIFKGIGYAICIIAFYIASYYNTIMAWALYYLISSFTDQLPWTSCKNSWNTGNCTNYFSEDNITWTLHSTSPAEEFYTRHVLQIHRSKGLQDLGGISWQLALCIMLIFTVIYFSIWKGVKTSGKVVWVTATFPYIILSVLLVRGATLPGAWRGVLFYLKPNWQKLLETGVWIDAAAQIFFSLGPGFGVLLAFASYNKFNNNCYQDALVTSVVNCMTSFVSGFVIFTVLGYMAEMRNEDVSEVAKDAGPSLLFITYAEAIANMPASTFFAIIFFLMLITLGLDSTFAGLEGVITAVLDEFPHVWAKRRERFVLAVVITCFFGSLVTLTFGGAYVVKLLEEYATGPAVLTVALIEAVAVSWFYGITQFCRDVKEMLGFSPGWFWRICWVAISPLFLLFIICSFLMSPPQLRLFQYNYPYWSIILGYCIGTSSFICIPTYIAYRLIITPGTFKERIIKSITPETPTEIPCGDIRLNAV

[11] = species: Homo sapiens; test: Selectivity ratio of IC50 for human SERT to IC50 for human NET
[12] = species: Homo sapiens; test: Selectivity ratio of IC50 for human DAT to IC50 for human NET
[13] = system: Rattus norvegicus; test: Increase in urethral resistance in po dosed rat assessed as increase in leak point pressure after 15 mins to 4 hrs by Evans blue dye leakage based assay; type: functional, organism-based; details: Urethra

| MRT [1] [h] | bioavailability [2] [%] | efflux ratio at 2 h, 10 µM [3] | Cmax [4] [ng/mL] | IC50 [5] [nM] | pKa [6] | IC50 [7] [nM] | AUC [9] [ng·h/mL] | IC50 [10] [nM] | Ratio IC50 [11] | Ratio IC50 [12] | Structure (SMILES) | Occ [8] [%] | Activity [13] |
| --- | --- | --- | --- | --- | --- | --- | --- | --- | --- | --- | --- | --- | --- |
| 1.5 | 12 | 1.9 | 17.2 | 1 | 5.45 | > 1000 | 38.9 | 380 |  |  | Cl.O=c1[nH]c(-c2cccn(C[C@@H]3CNCCO[C@H]3c3ccc(Cl)c(F)c3)c2=O)no1 | 28.4 |  |
|  |  | 6.8 |  | 0.64 | 9.68 | > 1000 |  | 67 |  |  | Cc1nnc(-c2cccn(C[C@@H]3CNCCO[C@H]3c3ccc(Cl)c(F)c3)c2=O)[nH]1.Cl |  |  |
| 2.1 | 20 |  | 47.9 | 0.079 |  | > 1000 | 107 | 130 | 1700 | > 13000 | Cl.O=c1ccccn1C[C@@H]1CNCCO[C@H]1c1ccc(Cl)c(F)c1 | 83.4 |  |
|  |  |  |  | 0.065 |  | 240 |  | 79 | 1200 | 3600 | O=c1cccnn1C[C@@H]1CNCCO[C@H]1c1ccc(Cl)c(F)c1 |  |  |
|  |  | 1.6 |  | 25 | 5.72 | > 1000 |  | > 1000 |  |  | Cl.O=c1[nH]c(-c2ccc(=O)n(C[C@@H]3CNCCO[C@H]3c3ccc(Cl)c(F)c3)c2)no1 |  |  |
| 2 | 8 | 1.7 | 16.2 | 1.4 | 3.88 | > 1000 | 44 | 730 |  |  | Cl.O=c1c(-c2nnn[nH]2)cccn1C[C@@H]1CNCCO[C@H]1c1ccc(Cl)c(F)c1 | 12 |  |
|  |  |  |  |  |  | > 1000 |  | > 1000 | > 440 | > 440 | CC(=O)NC[C@@H]1CNCCO[C@H]1c1ccc(Cl)c(F)c1 |  |  |
| 1.9 | 41 | 2.1 | 93.8 | 1.1 | 2.58 | > 1000 | 197 | > 1000 |  |  | Cl.O=C(O)c1cccn(C[C@@H]2CNCCO[C@H]2c2ccc(Cl)c(F)c2)c1=O | 14 | Dose-dependent effect |
|  |  | 0.6 |  | 100 | 6.35 | > 1000 |  | > 1000 |  |  | Cl.O=c1[nH]c(-c2cccc(=O)n2C[C@@H]2CNCCO[C@H]2c2ccc(Cl)c(F)c2)no1 |  |  |
|  |  |  |  | 0.08 |  | 66 |  | 12 | 150 | 820 | O=C1NCCCN1C[C@@H]1CNCCO[C@H]1c1ccc(Cl)c(F)c1 |  |  |
|  |  |  |  | 0.1 |  | 130 |  | 27 | 270 | 1300 | O=C1CCCCN1C[C@@H]1CNCCO[C@H]1c1ccc(Cl)c(F)c1 |  |  |
|  |  |  |  | 0.13 |  | 400 |  | 85 | 650 | 3100 | O=C1CCCN1C[C@@H]1CNCCO[C@H]1c1ccc(Cl)c(F)c1 |  |  |
|  |  | > 0.8 |  | 1.9 | 5.89 | > 1000 |  | 120 |  |  | Cl.O=c1[nH]c(-c2ccn(C[C@@H]3CNCCO[C@H]3c3ccc(Cl)c(F)c3)c(=O)c2)no1 |  |  |
|  |  | 7.8 |  | 0.21 |  | > 1000 |  | 54 |  |  | COC(=O)c1cccn(C[C@@H]2CNCCO[C@H]2c2ccc(Cl)c(F)c2)c1=O.Cl |  |  |
